Measured values taken from patent publication US20250297015A1, “DRUG CONDITIONING REGIMEN FOR SICKLE CELL DISEASE” (NEW YORK BLOOD CENTER, INC., priority 2022, published 2025).
“Also recorded” adds a separate entry of the source.

How the values were obtained:
Type in all cases: in vivo
[1] = test system: SS Townes mice; assay: Peripheral blood response (Hb, Hct, reticulocytes, WBC) to GBT-1118 in SCD mouse model
Experimental: (§1) This study uses a SCD mouse model, SS Townes mice, to evaluate the effects of GBT-1118, the murine analog of voxelotor, to mobilize hematopoietic progenitor cells (HPC). GBT-1118 (approximately 16 mg/mouse/day) was administered via chow (4 grams of GBT-1118 per kg of chow) daily for a month. The mice were then administered a single dose of plerixafor (10 mg/kg) via subcutaneous injection. […] Peripheral blood was collected in all groups prior to and two-and three-weeks post treatment with GBT-1118 (or control) to assess hemoglobin (Hgb), hematocrit (Hct), aged neutrophils, and circulating HPCs. One to two hrs after plerixafor, peripheral blood was collected for circulating HPC (LSKF) enumeration. Assay results in the groups are compared using ANOVA or Kruskal-Wallis testing.

[2] = test system: peripheral blood hematopoietic progenitor cells (HPC), LSKF cells; assay: Mobilization of peripheral blood hematopoietic progenitor cells (LSKF) in SCD mouse model
Experimental: as §1
Gating with and without CD45^+ was performed due to the erythroid hyperplasia seen in SCD, where CD45^+ expression decreases along with erythroid maturation (Boulais et al. Immunity 49:627-639, 2018) and the degree of erythroid hyperplasia in each mouse was unknown. The percentage of CD45^+ cells ranged from 60-80% per sample. […] As red cell transfusion tends to decrease circulating hematopoietic stem cells (HSCs) (Tang A et al, Blood 2021), this may be due to the increased bone marrow HSCs (FIGS. 4A and 4B) spilling into peripheral blood due to residual mesenchymal stem cell dysfunction.

[3] = test system: bone marrow HPCs and hematopoietic stem cells (HSCs); assay: Bone marrow HPCs and HSCs with and without plerixafor in SCD mouse model; details: SS Townes mice
Experimental: as §1
(§2) Also evaluated were bone marrow HPCs and hematopoietic stem cells (HSCs) with and without plerixafor and peripheral blood inflammatory markers (aged neutrophils, sVAM-1, P-selectin, and E-selectin) with and without plerixafor.
Bone marrow LSK (Lin^−Sca1^+ckit^+) is a less HSC-specific measure than bone marrow HSC (Lin^−Sca1^+ckit+CD48^−CD150^+); the markers Flt3 and CD135 are not present in bone marrow as they are in peripheral blood.

[4] = test system: peripheral blood inflammatory markers; assay: Peripheral blood inflammatory markers (aged neutrophils, sVCAM-1, P-selectin, E-selectin) in SCD mouse model
Experimental: as §1, §2
There is an increase in the aged neutrophil population in SCD.
There is evidence that SCD is associated with a chronic inflammatory state. Therefore, inflammatory markers (sVCAM-1, P-selectin, and E-selectin) in the peripheral blood of mice treated with GBT-1118 alone or with plerixafor were evaluated. […] This increase may be related to increased WBC and absolute neutrophil counts (ANC). Plasma P-selectin and E-selectin were not increased with GBT-1118 alone or with plerixafor (FIGS. 6B and 6C).

O=Cc1c(O)cccc1OC[C@@H]1CCCCN1C(=O)c1cccnc1 [GBT-1118]
hemoglobin (Hb) ([1]; GBT-1118 via chow approx. 16 mg/mouse/day, peripheral blood before vs 2 and 3 weeks after treatment (FIG. 1A)): increase | hematocrit (Hct) ([1]; GBT-1118 via chow, before vs 2 and 3 weeks after treatment (FIG. 1B)): increase | percentage of reticulocytes (retic %) ([1]; GBT-1118 via chow, before vs 2 and 3 weeks after treatment (FIG. 1C)): decrease | number of white blood cells (WBC) ([1]; GBT-1118 via chow, before vs 2 and 3 weeks after treatment (FIG. 1D)): essentially unchanged | peripheral blood LSKF cell concentration ([2]; SS Townes mice, compared to control (FIG. 3B)): significantly increased | percentage of peripheral blood LSKF (Lin-Sca1+ckit+Flt3-CD135-) cells mobilized ([2]; with CD45+ gating, plerixafor mobilization, 1-2 h after plerixafor, compared to control animals (FIGS. 3A and 3C)): higher percentage | bone marrow HSCs, as % of Lin- cells ([3]; GBT-1118 alone versus control (FIG. 4A)): significantly increased | total number of bone marrow HSC per femur ([3]; GBT-1118 versus control (FIG. 4B)): trend towards an increase; also recorded: trend towards increased | plasma P-selectin ([4]; GBT-1118 alone (FIG. 6B)): not increased | plasma E-selectin ([4]; GBT-1118 alone (FIG. 6C)): not increased | plasma P-selectin ([4]; GBT-1118 with plerixafor (FIG. 6B)): not increased | plasma E-selectin ([4]; GBT-1118 with plerixafor (FIG. 6C)): not increased | plasma sVCAM-1 ([4]; after GBT-1118 treatment (FIG. 6A)): small but significant increase | peripheral blood aged neutrophils (CXCR4high CD62Llow) ([4]; post-mobilization with plerixafor, GBT-1118 versus control (FIG. 5A-B)): not statistically significant
